Legend:
[1] = target: DNA-3-methyladenine glycosylase (Homo sapiens) (UniProt P29372); details: Compound Concentration 10.0 uM, Hit No;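 further: enzyme assay where MPG cuts a quenched duplex DNA oligonucleotide probe, paired with APE1 for strand incision and turnover, read as fluorescence at 594 nm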
Description: Inhibition of MPG by quantifying inhibition of MPG-mediated cleavage and dissociation of quenched duplex DNA oligonucleotides, measured as fluorescence at 594 nm. To generate a functional strand incision and increase turn-over this assay is coupled to APE1.

[2] = target: Endonuclease 8-like 1 (Homo sapiens) (UniProt Q96FI4); details: Hit No;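 further: fluorescence at 594 nm from quenched duplex DNA oligonucleotides released by NEIL1 cleavage and strand separation, reported as reduction of this enzyme activity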
Description: Inhibition of NEIL1 by quantifying inhibition of NEIL1-mediated cleavage and dissociation of quenched duplex DNA oligonucleotides, measured as fluorescence at 594 nm.

[3] = target: T1, Endonuclease 8-like 2 (Homo sapiens) (UniProt Q969S2); details: Hit No;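 further: fluorescence at 594 nm reports NEIL2 cutting and release of a quenched double-stranded DNA oligo substrate, reduced signal read as inhibition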
T1 sequence (whole entry): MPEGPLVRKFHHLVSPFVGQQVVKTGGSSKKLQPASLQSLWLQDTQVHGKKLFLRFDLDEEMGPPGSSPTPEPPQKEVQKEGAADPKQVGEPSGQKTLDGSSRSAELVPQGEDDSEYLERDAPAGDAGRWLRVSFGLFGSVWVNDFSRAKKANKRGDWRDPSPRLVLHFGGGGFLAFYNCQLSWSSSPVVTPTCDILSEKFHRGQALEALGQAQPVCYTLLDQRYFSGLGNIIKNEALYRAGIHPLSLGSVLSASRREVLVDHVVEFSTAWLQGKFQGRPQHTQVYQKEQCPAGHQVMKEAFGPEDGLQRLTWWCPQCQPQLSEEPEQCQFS
Description: Inhibition of NEIL2 by quantifying inhibition of NEIL2-mediated cleavage and dissociation of quenched duplex DNA oligonucleotides, measured as fluorescence at 594 nm.

[4] = target: N-glycosylase/DNA lyase (Homo sapiens) (UniProt O15527); details: Hit No;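 further: OGG1 cleavage of a quenched duplex DNA oligonucleotide, coupled to APE1 for strand incision, read as fluorescence at 594 nm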
Description: Inhibition of OGG1 by quantifying inhibition of OGG1-mediated cleavage and dissociation of quenched duplex DNA oligonucleotides, measured as fluorescence at 594 nm. To generate a functional strand incision and increase turn-over this assay is coupled to APE1.

[5] = target: G/T mismatch-specific thymine DNA glycosylase (Homo sapiens) (UniProt Q13569); details: Hit No;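 further: human TDG cleavage of quenched duplex DNA oligonucleotides coupled to APE1, strand release read as fluorescence at 594 nm, inhibition of TDG activity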
Description: Inhibition of TDG by quantifying inhibition of TDG-mediated cleavage and dissociation of quenched duplex DNA oligonucleotides, measured as fluorescence at 594 nm. To generate a functional strand incision and increase turn-over this assay is coupled to APE1.

[6] = target: T2, Single-strand selective monofunctional uracil DNA glycosylase (Homo sapiens) (UniProt Q53HV7); details: Hit No;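 further: enzymatic SMUG1 assay coupled with APE1, reading fluorescence at 594 nm released when a quenched double-stranded DNA oligonucleotide substrate is cleaved and separated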
T2 sequence (whole entry): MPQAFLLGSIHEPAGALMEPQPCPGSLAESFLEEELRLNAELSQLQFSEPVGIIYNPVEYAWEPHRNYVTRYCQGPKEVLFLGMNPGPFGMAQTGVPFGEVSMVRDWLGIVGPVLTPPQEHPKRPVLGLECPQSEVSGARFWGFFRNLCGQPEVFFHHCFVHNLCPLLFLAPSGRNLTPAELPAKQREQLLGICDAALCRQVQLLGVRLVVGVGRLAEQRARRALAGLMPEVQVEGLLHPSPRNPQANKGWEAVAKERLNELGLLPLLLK
Description: Inhibition of SMUG1 by quantifying inhibition of SMUG1-mediated cleavage and dissociation of quenched duplex DNA oligonucleotides, measured as fluorescence at 594 nm. To generate a functional strand incision and increase turn-over this assay is coupled to APE1.

[7] = target: Uracil-DNA glycosylase (Homo sapiens) (UniProt P13051); details: Hit No;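 further: UNG excision on a quenched double-stranded DNA oligo probe, with APE1 added for strand incision and turnover, read as fluorescence at 594 nm as strands separate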
Description: Inhibition of UNG by quantifying inhibition of UNG-mediated cleavage and dissociation of quenched duplex DNA oligonucleotides, measured as fluorescence at 594 nm. To generate a functional strand incision and increase turn-over this assay is coupled to APE1.

[8] = target: Methyl-CpG-binding domain protein 4 (Homo sapiens) (UniProt O95243); details: Hit No;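 further: MBD4 activity read as fluorescence at 594 nm from cleavage and release of a quenched duplex DNA oligonucleotide, with APE1 coupled to incise the strand and raise turnover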
Description: Inhibition of MBD4 by quantifying inhibition of MBD4-mediated cleavage and dissociation of quenched duplex DNA oligonucleotides, measured as fluorescence at 594 nm. To generate a functional strand incision and increase turn-over this assay is coupled to APE1.

[9] = target: T3, Adenine DNA glycosylase (Homo sapiens) (UniProt Q9UIF7); details: Hit No;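 further: human MUTYH activity read as 594 nm fluorescence from cleavage and release of a quenched DNA duplex, coupled with APE1 for strand incision, lower signal meaning inhibition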
T3 sequence (whole entry): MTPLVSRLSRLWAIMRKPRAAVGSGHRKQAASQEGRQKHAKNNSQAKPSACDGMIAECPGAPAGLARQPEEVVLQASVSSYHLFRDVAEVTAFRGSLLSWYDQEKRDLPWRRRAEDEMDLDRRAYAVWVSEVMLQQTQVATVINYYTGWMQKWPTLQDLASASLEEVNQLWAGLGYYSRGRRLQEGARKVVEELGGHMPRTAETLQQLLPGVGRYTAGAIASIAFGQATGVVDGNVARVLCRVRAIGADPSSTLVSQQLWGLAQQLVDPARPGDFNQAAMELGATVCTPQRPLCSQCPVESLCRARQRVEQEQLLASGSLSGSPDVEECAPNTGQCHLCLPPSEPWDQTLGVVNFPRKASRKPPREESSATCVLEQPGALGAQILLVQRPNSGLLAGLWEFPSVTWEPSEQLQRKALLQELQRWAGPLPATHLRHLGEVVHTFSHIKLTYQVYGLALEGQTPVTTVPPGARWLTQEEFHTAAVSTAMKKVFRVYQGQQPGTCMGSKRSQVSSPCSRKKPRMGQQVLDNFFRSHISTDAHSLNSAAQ
Description: Inhibition of MUTYH by quantifying inhibition of MUTYH-mediated cleavage and dissociation of quenched duplex DNA oligonucleotides, measured as fluorescence at 594 nm. To generate a functional strand incision and increase turn-over this assay is coupled to APE1.

[10] = target: T4, Endonuclease III-like protein 1 (Homo sapiens) (UniProt P78549); details: Hit No;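 further: enzyme assay tracking NTHL1 cutting and release of a quenched double-stranded DNA oligo substrate, read as fluorescence at 594 nm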
T4 sequence (whole entry): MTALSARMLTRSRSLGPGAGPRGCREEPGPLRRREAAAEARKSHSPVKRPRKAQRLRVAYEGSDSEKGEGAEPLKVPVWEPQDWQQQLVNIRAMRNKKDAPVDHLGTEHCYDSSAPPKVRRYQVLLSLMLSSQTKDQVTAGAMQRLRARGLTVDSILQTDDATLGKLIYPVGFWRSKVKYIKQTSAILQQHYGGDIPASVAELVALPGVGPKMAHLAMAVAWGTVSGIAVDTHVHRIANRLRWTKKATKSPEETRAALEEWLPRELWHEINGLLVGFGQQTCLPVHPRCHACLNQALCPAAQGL
Description: Inhibition of NTHL1 by quantifying inhibition of NTHL1-mediated cleavage and dissociation of quenched duplex DNA oligonucleotides, measured as fluorescence at 594 nm.

Chain of DNA-3-methyladenine glycosylase (Homo sapiens) (P29372 whole entry): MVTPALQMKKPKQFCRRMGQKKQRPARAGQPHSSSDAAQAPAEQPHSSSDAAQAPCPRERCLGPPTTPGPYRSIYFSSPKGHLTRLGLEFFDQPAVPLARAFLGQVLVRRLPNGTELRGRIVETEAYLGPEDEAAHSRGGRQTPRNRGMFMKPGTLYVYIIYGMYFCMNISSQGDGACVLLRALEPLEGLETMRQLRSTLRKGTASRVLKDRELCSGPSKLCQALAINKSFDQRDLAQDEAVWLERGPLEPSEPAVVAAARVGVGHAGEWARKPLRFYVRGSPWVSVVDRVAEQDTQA
Chain of G/T mismatch-specific thymine DNA glycosylase (Homo sapiens) (Q13569 whole entry): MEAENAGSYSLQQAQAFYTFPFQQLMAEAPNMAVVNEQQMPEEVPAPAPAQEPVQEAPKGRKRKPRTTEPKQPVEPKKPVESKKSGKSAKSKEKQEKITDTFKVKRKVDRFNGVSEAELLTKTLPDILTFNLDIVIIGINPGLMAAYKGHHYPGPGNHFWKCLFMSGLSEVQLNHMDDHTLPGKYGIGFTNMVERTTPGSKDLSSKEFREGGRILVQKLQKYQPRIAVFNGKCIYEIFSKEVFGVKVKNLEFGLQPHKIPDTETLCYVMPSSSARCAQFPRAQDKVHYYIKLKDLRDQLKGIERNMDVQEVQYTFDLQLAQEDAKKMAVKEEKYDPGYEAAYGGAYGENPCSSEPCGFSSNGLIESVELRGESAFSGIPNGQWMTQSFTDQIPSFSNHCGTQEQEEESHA
Chain of Endonuclease 8-like 1 (Homo sapiens) (Q96FI4 whole entry): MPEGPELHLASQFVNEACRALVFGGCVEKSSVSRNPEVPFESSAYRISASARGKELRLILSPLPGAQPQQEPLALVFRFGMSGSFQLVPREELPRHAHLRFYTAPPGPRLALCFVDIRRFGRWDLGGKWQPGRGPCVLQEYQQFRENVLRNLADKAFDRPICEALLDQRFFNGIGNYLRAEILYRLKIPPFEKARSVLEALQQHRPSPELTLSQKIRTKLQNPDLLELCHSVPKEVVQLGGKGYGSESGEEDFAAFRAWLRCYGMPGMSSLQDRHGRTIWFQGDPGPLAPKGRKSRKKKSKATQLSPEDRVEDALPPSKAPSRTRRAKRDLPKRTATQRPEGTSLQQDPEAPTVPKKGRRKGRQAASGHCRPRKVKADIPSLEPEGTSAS
Chain of Methyl-CpG-binding domain protein 4 (Homo sapiens) (O95243 whole entry, the tested form may be a part): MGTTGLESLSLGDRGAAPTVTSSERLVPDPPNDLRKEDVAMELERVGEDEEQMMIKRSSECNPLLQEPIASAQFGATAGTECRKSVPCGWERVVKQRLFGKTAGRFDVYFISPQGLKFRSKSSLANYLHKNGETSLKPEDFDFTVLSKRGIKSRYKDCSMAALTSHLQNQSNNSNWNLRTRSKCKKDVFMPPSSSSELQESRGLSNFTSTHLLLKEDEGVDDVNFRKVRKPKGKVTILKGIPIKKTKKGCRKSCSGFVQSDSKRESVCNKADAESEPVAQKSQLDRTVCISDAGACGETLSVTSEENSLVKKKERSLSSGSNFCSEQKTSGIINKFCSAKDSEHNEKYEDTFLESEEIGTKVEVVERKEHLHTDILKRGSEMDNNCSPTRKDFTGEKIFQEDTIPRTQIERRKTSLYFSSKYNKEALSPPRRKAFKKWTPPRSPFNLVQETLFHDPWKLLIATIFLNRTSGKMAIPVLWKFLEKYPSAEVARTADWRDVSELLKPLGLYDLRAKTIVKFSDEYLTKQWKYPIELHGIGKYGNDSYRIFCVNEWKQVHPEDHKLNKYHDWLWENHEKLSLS
Chain of Uracil-DNA glycosylase (Homo sapiens) (P13051 whole entry, the tested form may be a part): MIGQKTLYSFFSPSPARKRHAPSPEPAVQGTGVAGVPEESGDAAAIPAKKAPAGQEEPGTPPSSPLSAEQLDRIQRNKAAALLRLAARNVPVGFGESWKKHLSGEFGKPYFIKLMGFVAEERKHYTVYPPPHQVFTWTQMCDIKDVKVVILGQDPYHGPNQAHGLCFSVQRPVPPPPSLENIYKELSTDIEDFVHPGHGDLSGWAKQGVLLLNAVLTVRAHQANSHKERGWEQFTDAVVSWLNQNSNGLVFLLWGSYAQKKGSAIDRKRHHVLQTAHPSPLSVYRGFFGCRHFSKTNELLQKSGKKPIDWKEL
Chain of N-glycosylase/DNA lyase (Homo sapiens) (O15527 whole entry): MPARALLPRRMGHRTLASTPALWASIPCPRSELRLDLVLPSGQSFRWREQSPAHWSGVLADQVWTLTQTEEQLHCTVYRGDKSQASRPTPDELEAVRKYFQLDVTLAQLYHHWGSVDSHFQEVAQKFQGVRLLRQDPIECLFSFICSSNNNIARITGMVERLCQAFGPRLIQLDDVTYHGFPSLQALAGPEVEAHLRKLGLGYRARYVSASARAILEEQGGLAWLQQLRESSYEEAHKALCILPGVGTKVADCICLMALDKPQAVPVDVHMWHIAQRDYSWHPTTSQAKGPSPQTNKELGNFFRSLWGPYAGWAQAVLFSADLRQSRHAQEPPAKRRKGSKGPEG

Compound	inhibition [1] [%]	inhibition ([2]; Compound Concentration 10.0 uM) [%]	inhibition ([3]; Compound Concentration 10.0 uM) [%]	inhibition ([4]; Compound Concentration 10.0 uM) [%]	inhibition ([5]; Compound Concentration 10.0 uM) [%]	inhibition ([6]; Compound Concentration 10.0 uM) [%]	inhibition ([7]; Compound Concentration 10.0 uM) [%]	inhibition ([8]; Compound Concentration 10.0 uM) [%]	inhibition ([9]; Compound Concentration 10.0 uM) [%]	inhibition ([10]; Compound Concentration 10.0 uM) [%]	inhibition ([8]; Compound Concentration 1.0 uM) [%]	inhibition ([9]; Compound Concentration 1.0 uM) [%]	inhibition ([2]; Compound Concentration 1.0 uM) [%]	inhibition ([3]; Compound Concentration 1.0 uM) [%]	inhibition ([10]; Compound Concentration 1.0 uM) [%]	inhibition ([4]; Compound Concentration 1.0 uM) [%]	inhibition ([6]; Compound Concentration 1.0 uM) [%]	inhibition ([5]; Compound Concentration 1.0 uM) [%]	inhibition ([7]; Compound Concentration 1.0 uM) [%]
O=c1ccn([C@@H]2O[C@H](COP(=O)(O)OP(=O)(O)OP(=O)(O)O)[C@@H](O)[C@H]2O)c(=O)[nH]1	-2.4	-1.39	-9.97	-2.46	-4.53														
CSc1ccccc1N1CCN(CCCCCC(=O)NC2CCCc3ccccc32)CC1 (configuration not stated)	6.14	7.57		-6.45	1.58	-2.78	-4.03												
COc1ccncc1C(=O)NC(=O)Nc1ccc(-c2ccccc2)c(C(F)(F)F)c1	-3.95		-8.22	-8.25	-6.05														
CCOc1ccc(Cc2nc3cc(C(=O)N(CC)CC)ccc3n2CC2CCCCC2)cc1	-2.6	2.91	4.01	9.81	2.76	2.19	-9.77												
CC(C)(O)CCn1c(=O)n(C(=O)N[C@H](C(N)=O)C(C)(C)C)c2ccccc21	-4.33	2.61	1.76	-0.203	10.8	-3.57	-9.98												
Cn1cc(C(=O)OCC2CCN(CCNS(C)(=O)=O)CC2)c2ccccc21	11.2	1.28	2.51		-0.888														
COC(=O)[C@H]1[C@H]2C[C@H]3c4[nH]c5ccccc5c4CCN3C[C@H]2CC[C@@H]1O	14.5	2.02	9.75	-6.57	5.99														
CC(C)Oc1ccc(Cc2ccc(NC3=NCCN3)cc2)cc1	-3.29	0.454	-6.46		0.0736	-1.14	-3.75												
CC(C)c1ccc(CC(=O)N2CCC[C@@H](c3cccc(OC(C)(C)C(=O)O)c3)C2)cc1		-5.29	4.61	-4.05	47.9	12.4	3.87	54.2	-0.105	8.57									
CN(CCOc1ccc(C[C@H](Nc2ccccc2C(=O)c2ccccc2)C(=O)O)cc1)c1ccccn1		5.16	4.36	24.7	30.8	8.44	-0.00636	67	-3.55	-4.57									
Cc1cn([C@@H](C)CC#N)c(=O)c2cc(Cn3nc(C(F)F)cc3Cl)nn12		-0.442	0.0213	9.38	99.3	19.8	2.85	56.2	0.387	5.29									
CS(=O)(=O)N1CCCC(NC(=O)[C@H](CCC2CCCCC2)NC(=O)c2ccc(CNC(=O)c3cnc4ccccn34)cc2)C1 (some centres not stated)											27.9	-1.13	-0.0491	-2.03	7.17	-1.52	10.6	41.5	0.321
N#CC1(c2ccccn2)CCN(Cc2cc(C(=O)N3CCCC3)c(=O)n3ccccc23)CC1		-0.745	4.87	13.7	39.8	16.3	2.35	68.6	-9.61	2									
O=C(O)c1ccc(C(=O)N[C@@H](c2ccc(OC(F)(F)F)c(F)c2)c2ncccc2F)nc1		5.2	13.9	-2.45	8.79	-6.46	-9.18	11.1	7.76	22.9									
CN1CCN(C(=O)C(C)(C)c2ccc(C(=O)Nc3cn4cc(-c5ccncc5)ccc4n3)cc2)CC1		1.07	-4.06	0.918	60.5	18.7	6.5	60.8	32.7	9.89	-4.56	33.1			4.27	-1.57	14.8	36.3	0.265

The remaining lines, values ahead:

inhibition [1] [%]	inhibition ([2]; Compound Concentration 10.0 uM) [%]	inhibition ([3]; Compound Concentration 10.0 uM) [%]	inhibition ([4]; Compound Concentration 10.0 uM) [%]	inhibition ([5]; Compound Concentration 10.0 uM) [%]	inhibition ([6]; Compound Concentration 10.0 uM) [%]	inhibition ([7]; Compound Concentration 10.0 uM) [%]	inhibition ([8]; Compound Concentration 10.0 uM) [%]	inhibition ([9]; Compound Concentration 10.0 uM) [%]	inhibition ([10]; Compound Concentration 10.0 uM) [%]	inhibition ([8]; Compound Concentration 1.0 uM) [%]	inhibition ([9]; Compound Concentration 1.0 uM) [%]	inhibition ([2]; Compound Concentration 1.0 uM) [%]	inhibition ([3]; Compound Concentration 1.0 uM) [%]	inhibition ([10]; Compound Concentration 1.0 uM) [%]	inhibition ([4]; Compound Concentration 1.0 uM) [%]	inhibition ([6]; Compound Concentration 1.0 uM) [%]	inhibition ([5]; Compound Concentration 1.0 uM) [%]	inhibition ([7]; Compound Concentration 1.0 uM) [%]	Compound
-1.59	0.834	-5.22	-1.28	16.4	-6.62														Cc1csc2c(N[C@@H](C)CN3CCN(S(=O)(=O)c4ccc(Cl)c(Cl)c4)CC3)ncnc12
-4.83	5.58	7.25	2.18	-7.89	-9.82														CC(C)c1cc(-c2ccc(F)c3ccccc23)nc(N)n1
-1.21	-2.72			-4.93		-7.72	-3.33												Nc1nc(-c2ccco2)c2cnn(Cc3ccccc3F)c2n1
-9.23	-7.17	0.515	-0.805	14.5	1.52	-8.14													CN1CCCC(n2nc(Cc3ccc(Cl)cc3)c3ccccc3c2=O)CC1 (configuration not stated)
	-3.02	3.08	18.3	46.7	27.6	5.72	66.8	4.92	-1.95										CC(C)OC(=O)C1=CN(C(=O)c2ccc(F)c(F)c2)CC(C)(C)c2c1[nH]c1ccccc21
	6.08	-2.46	66.5	36.3	18.9	-0.203	33	15.7	4.27										Cc1cccc(-c2cnc3occ(-c4ccc(C(=O)O)c(C5CCCC5)c4)c3c2)c1
										3.44	1.71	2.65	4.81	10.6	3.18	11.2	46.8	3.22	CN(C)CC#Cc1ccc2[nH]c3c(c2c1)-c1nc(N)ncc1CCC3
	-5.19	3.79	0.815	45.3	15.8	2.48	25.9	-1.18	0.755										CC(C)(O)[C@H](F)CN1Cc2cc(NC(=O)c3cnn4cccnc34)c(N3CCOCC3)cc2C1=O
	-5.41	3.2	2.14	37.4	20.2	2.84	13.6	-0.48	-8.28										COc1cc(-c2cn[nH]c2)ccc1C(=O)Nc1ccc2c(c1)CCNCC2
	2.65	1.58	-0.214	41.3	26.9	6.12	-0.894	13.7	-1.31										CN(C)c1ncc2cc(-c3ccc(-c4ncccc4F)cc3Cl)c(=O)n(C[C@H]3OC[C@H](N)CO3)c2n1

— ChEMBL document CHEMBL5665443, “Enzyme Inhibitor Single Concentration assay results for EUbOPEN Chemogenomics Library” (2024)
